These results are taken from patent US8652997B2, “Active compound combinations” (Bayer CropScience AG, priority 2009, dated 2014).

Where two headings read alike, the source gives them in different places.

What all share (assay type): in vivo
The subject of one assay is Septoria tritici. In words: Septoria tritici-test (wheat)/preventive. To be noted: preventive spray, evaluated 21 days after inoculation. How it is done: Septoria tritici-Test (Wheat)/Preventive
(§1) Solvent: 49 parts by weight of n,n-dimethylacetamid
(§2) Emulsifier: 1 part by weight of alkylaryl polyglycol ether
(§3) To produce a suitable preparation of active compound, 1 part by weight of active compound or active compound combination is mixed with the stated amounts of solvent and emulsifier, and the concentrate is diluted with water to the desired concentration.
(§4) To test for preventive activity, young plants are sprayed with the preparation of active compound or active compound combination at the stated rate of application.
After the spray coating has been dried, the plants are sprayed with a spore suspension of Septoria tritici. The plants remain for 48 hours in an incubation cabinet at approximately 20° C. and a relative atmospheric humidity of approximately 100% and afterwards for 60 hours at approximately 15° C. in a translucent incubation cabinet at a relative atmospheric humidity of approximately 100%.
The plants are placed in the greenhouse at a temperature of approximately 15° C. and a relative atmospheric humidity of approximately 80%.
The test is evaluated 21 days after the inoculation. 0% means an efficacy which corresponds to that of the control, while an efficacy of 100% means that no disease is observed.

The test system of assay [1] is larvae of the diamondback moth (Plutella xylostella). Nature of the assay: Plutella xylostella test (sprayed cabbage leaves). On the procedure: (§5) Solvent: 7 parts by weight of dimethylformamide
(§6) Emulsifier: 2 parts by weight of alkylaryl polyglycolether
(§7) To produce a suitable preparation of active compound, 1 part by weight of active compound is mixed with the stated amount of solvent and emulsifier, and the concentrate is diluted with emulsifier-containing water to the desired concentration.
Cabbage leaves (Brassica oleracea) are treated by being sprayed into the preparation of the active compound of the desired concentration and are infested with larvae of the diamondback moth (Plutella xylostella) as long as the leaves are still moist.
After the specified period of time, the mortality in % is determined. 100% means that all the caterpillars have been killed; 0% means that none of the caterpillars have been killed.

The test system of assay [2] is Fusarium nivale (var. majus). Nature of the assay: Fusarium nivale (var. majus)-test (wheat)/preventive. To be noted: preventive spray, evaluated 5 days after inoculation. How it is done: Fusarium nivale (Var. majus)-Test (Wheat)/Preventive
as §1, §2, §3, §4
After the spray coating has been dried, the plants are slightly injured by using a sandblast and afterwards they are sprayed with a conidia suspension of Fusarium nivale (var. majus).
The plants are placed in the greenhouse under a translucent incubation cabinet at a temperature of approximately 10° C. and a relative atmospheric humidity of approximately 100%.
The test is evaluated 5 days after the inoculation. 0% means an efficacy which corresponds to that of the control, while an efficacy of 100% means that no disease is observed.

Assay [3] relates to two spotted spidermites (Tetranychus urticae). Nature of the assay: Tetranychus urticae test (sprayed French bean leaves). How it is done: as §5, §6, §7
French bean leaves (Phaseolus vulgaris) which are heavily infested with all stages of the two spotted spidermites (Tetranychus urticae) are treated by being sprayed into the preparation of the active compound of the desired concentration.
After the specified period of time, the mortality in % is determined. 100% means that all the spider mites have been killed; 0% means that none of the spider mites have been killed.

Setting [4] is: 48 h, read-out: Mortality in % after 2d.
The mark [5] stands for this setting: 48 h, after 2 d, read-out: Mortality in % after 2d.
Where [6] appears, read: 96 h, after 4 d, read-out: Mortality in % after 4d.
Where [7] appears, read: 96 h, read-out: Mortality in % after 4d.

On to `O=[N+]([O-])/N=C1\NCCN1Cc1ccc(Cl)nc1` [Imidacloprid, imidacloprid], for which, in the assay on Septoria tritici (500 g/ha), the “Efficacy in % found” value was determined as 22%. Besides, the “Efficacy in % found” value in the assay on Septoria tritici (1000 g/ha) was 22%. For the same compound, in assay [1] (setting [4]), the mortality at 20 ppm was determined as 0% and the mortality at 100 ppm came to 20%.

For `N#Cc1ccccc1NC(=O)c1snc(Cl)c1Cl` [Isotianil, 3,4-dichloro-N-(2-cyanophenyl)-5-isothiazolecarboxamide], the figures for the “Efficacy in % found” value (in assay [2] (1000 g/ha); in the assay with Septoria tritici (500 g/ha); with Septoria tritici (1000 g/ha)) were 25%, 33% and 33%, respectively. Further, the mortality at 200 ppm in assay [1] (setting [5]) is 5%; in assay [1] (setting [6]), 5%; in assay [3] (setting [5]), 0%; in assay [3] (setting [6]), 0%.

For the compound `CCC(C)(C)C(=O)OC1=C(c2ccc(Cl)cc2Cl)C(=O)OC12CCCCC2` [Spirodiclofen, spirodiclofen], the “Efficacy in % found” value worked out at 13% in assay [2] (250 g/ha) and 22% in the assay on Septoria tritici (250 g/ha). Further, the results for the mortality at 20 ppm in assay [1] (setting [7]) and in assay [3] (setting [4]) were 15% and 30%, respectively.

`CCOC(=O)OC1=C(c2cc(C)ccc2C)C(=O)N[C@]12CC[C@@H](OC)CC2` [Spirotetramat, spirotetramat]: the “Efficacy in % found” value in the assay on Septoria tritici (250 g/ha) came out at 22%. The results for the mortality at 20 ppm in assay [1] (setting [4]) and in assay [3] (setting [7]) were 20% and 55%, respectively.

`Cc1cc(C)c(C2=C(OC(=O)CC(C)(C)C)C3(CCCC3)OC2=O)c(C)c1` [Spiromesifen, spiromesifen]: the “Efficacy in % found” value in assay [2] (250 g/ha) came to 38%. Besides, the mortality at 500 ppm in assay [1] (setting [7]) stood at 25%. Besides, the mortality at 100 ppm in assay [3] (setting [7]) came out at 75%.

What is called mortality is the share of the test organisms that died.
